{"source": "BindingDB's records for doi:10.1021/jm200390u", "about": "(Chosun University, 2011)", "biological_target": "T1, 15-hydroxyprostaglandin dehydrogenase [NAD(+)] (Homo sapiens, UniProt P15428)", "T1 sequence (P15428 whole entry)": "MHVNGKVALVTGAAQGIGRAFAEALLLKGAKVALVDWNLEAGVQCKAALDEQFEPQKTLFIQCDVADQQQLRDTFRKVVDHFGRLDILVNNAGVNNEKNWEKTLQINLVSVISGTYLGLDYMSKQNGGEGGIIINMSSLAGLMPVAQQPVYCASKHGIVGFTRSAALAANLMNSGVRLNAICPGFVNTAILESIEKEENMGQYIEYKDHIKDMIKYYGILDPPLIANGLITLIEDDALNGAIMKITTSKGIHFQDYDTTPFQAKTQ", "test": "Inhibition of human 15-PGDH expressed in Escherichia coli using PGE2 as substrate and NAD+ as coenzyme assessed as formation of NADH by spectrophotometric analysis", "data": [{"smiles": "O=C1N=C(O)SC1=Cc1ccc(OCCC2CCCCC2)cc1", "values": [{"measurement": "IC50", "value": 51, "unit": "nM"}]}]}
